Counter-ions that a name gives are not always drawn.
Experiments:
[1] = target: T1, recombinant human LTA4 hydrolase (rhLTA4H) (Homo sapiens, UniProt P09960); experiment: Recombinant human LTA4 hydrolase assay for LTA4 hydrolase inhibitor activity; assay type: biochemical; conditions: rhLTA4H, LTB4 by immunoassay; single determination or average of two or more; mark after value = form tested: ′ free base, ″ hydrochloride, ^ formate; read-out: IC50
T1 construct: made in house; host or cells: Spodoptera frugiperda (Sf-9) cells, baculovirus (pFastBac1)
T1 sequence (P09960 1-611): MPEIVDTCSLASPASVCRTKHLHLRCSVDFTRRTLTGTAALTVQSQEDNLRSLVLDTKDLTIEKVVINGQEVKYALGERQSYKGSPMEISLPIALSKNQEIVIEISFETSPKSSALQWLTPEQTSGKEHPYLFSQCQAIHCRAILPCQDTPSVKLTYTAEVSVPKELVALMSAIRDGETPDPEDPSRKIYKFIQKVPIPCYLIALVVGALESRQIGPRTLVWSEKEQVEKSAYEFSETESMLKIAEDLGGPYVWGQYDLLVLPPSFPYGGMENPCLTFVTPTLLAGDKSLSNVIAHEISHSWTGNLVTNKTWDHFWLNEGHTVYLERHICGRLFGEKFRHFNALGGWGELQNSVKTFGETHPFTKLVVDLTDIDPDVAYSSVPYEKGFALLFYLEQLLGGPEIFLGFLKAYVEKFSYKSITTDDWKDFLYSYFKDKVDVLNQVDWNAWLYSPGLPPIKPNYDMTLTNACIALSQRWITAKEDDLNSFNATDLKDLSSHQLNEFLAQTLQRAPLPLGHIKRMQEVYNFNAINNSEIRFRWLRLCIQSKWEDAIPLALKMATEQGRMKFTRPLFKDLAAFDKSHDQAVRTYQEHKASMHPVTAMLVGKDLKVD
In short: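 LTB4 formation, measured by enzyme immunoassay, was the read-out. The enzyme, recombinant human LTA4H expressed in Sf-9 insect cells (10 ng per reaction), was exposed to compound for 10 min at room temperature before hydrolysed-ester LTA4 substrate was added for 30 min. Enzyme-free negatives were included.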

[2] = tested on: LTB4 production in murine blood (LTA4H); experiment: LTB4 production by calcium ionophore-stimulated murine blood for LTA4H inhibitor activity; assay type: cell-based, CD-1 mice; conditions: Mus musculus; murine blood diluted 1 in 15, A23187 stimulated; single determination or average; mark after value = form tested: ′ free base, ″ hydrochloride, ^ formate; read-out: IC50
Method: Assay 2: LTB4 Production by Calcium Ionophore-Stimulated Murine Blood for LTA4H Inhibitor Activity
CD-1 mice were sacrificed, and blood was collected in heparin-containing syringes by cardiac puncture. […] After the microtiter plate contents were incubated for 15 min at 37° C. in a humidified incubator, calcium ionophore A23187 (Sigma Chemical Co., St. Louis, Mo.) was added to each sample well (final concentration=7 μg/mL). The incubation was continued under the same conditions for an additional 30 min to allow LTB4 formation. The reaction was terminated by centrifugation (833×g, 10 min at 4° C.), and supernatants were analyzed for LTB4 by a commercially available enzyme-linked immunoassay (Cayman Chemical Co.) according to the manufacturer's instructions. Positive controls, under essentially identical conditions but without addition of an inhibitor compound, and negative unstimulated controls, containing all assay components except calcium ionophore, were routinely run in each experiment. […] The values presented here are the result of a single determination or an average of two or more determinations.

Compound | IC50 [1] [nM] | IC50 [2] [nM]
OC1(c2ccccc2)CCN(Cc2coc3cc(Oc4nc5ncccc5s4)ccc23)CC1 [Example 275, 4-Phenyl-1-[6-(thiazolo[4,5-b]pyridin-2-yloxy)-benzofuran-3-ylmethyl]-piperidin-4-ol] | 2 | 34
CC(=O)N[C@H]1C[C@H]2CC[C@@H](C1)N2Cc1cc2ccc(Oc3nc4ccccc4s3)cc2[nH]1 [Example 70, meso-endo-N-{8-[6-(Benzothiazol-2-yloxy)-1H-indol-2-ylmethyl]-8-aza-bicyclo[3.2.1]oct-3-yl}-acetamide] | 1 | 76
NC(=O)N1C[C@H]2CC[C@@H](C1)N2Cc1coc2cc(Oc3nc4ncccc4s3)ccc12 [Example 210, meso-8-[6-(Thiazolo[4,5-b]pyridin-2-yloxy)-benzofuran-3-ylmethyl]-3,8-diaza-bicyclo[3.2.1]octane-3-carboxylic acid amide] | 5 | 34
NC(=O)N1C[C@@H]2C[C@H]1CN2C(=O)c1coc2cc(Oc3nc4ncccc4s3)ccc12 [Example 375, (1S,4S)-5-[6-(Thiazolo[4,5-b]pyridin-2-yloxy)-benzofuran-3-carbonyl]-2,5-diaza-bicyclo[2.2.1]heptane-2-carboxylic acid amide] | 41 | 610
NC1CCN(Cc2c[nH]c3cc(Oc4nc5ccccc5s4)ccc23)CC1 [Example 50, 1-[6-(Benzothiazol-2-yloxy)-1H-indol-3-ylmethyl]-piperidin-4-ylamine 2HCl] | 28 | 739
CC(C)(C)NCc1coc2cc(Oc3nc4ncccc4s3)ccc12 [Example 301, tert-Butyl-[6-(thiazolo[4,5-b]pyridin-2-yloxy)-benzofuran-3-ylmethyl]-amine formate] | 15 | 4
CC(=O)N1CC2CN(Cc3cc4ccc(Oc5nc6ncccc6s5)cc4o3)CC2C1 (stereo not shown) [Example 195, 1-{5-[6-(Thiazolo[4,5-b]pyridin-2-yloxy)-benzofuran-2-ylmethyl]-hexahydro-pyrrolo[3,4-c]pyrrol-2-yl}-ethanone] | 80 | 151
CC(=O)N(CC(=O)O)[C@H]1C[C@H]2CC[C@@H](C1)N2Cc1c[nH]c2ccc(Oc3nc4ccccc4s3)cc12 [Example 49, meso-endo-(Acetyl-{8-[5-(benzothiazol-2-yloxy)-1H-indol-3-ylmethyl]-8-aza-bicyclo[3.2.1]oct-3-yl}-amino)-acetic acid] | 13 | 10000
CC(C)N(C)C(=O)c1coc2cc(Oc3nc4ncccc4s3)ccc12 [Example 373, 6-(Thiazolo[4,5-b]pyridin-2-yloxy)-benzofuran-3-carboxylic acid isopropyl-methyl-amide] | 34 | 100
CCOC(=O)[C@@H]1CCCN(Cc2c[nH]c3cc(Oc4nc5ccccc5s4)ccc23)C1 [Example 144, (3R)-1-[6-(Benzothiazol-2-yloxy)-1H-indol-3-ylmethyl]-piperidine-3-carboxylic acid ethyl ester] | 78 | 2440
c1cnc2nc(Oc3ccc4c(CN5CCC(N6CCOCC6)CC5)coc4c3)sc2c1 [Example 285, 2-[3-(4-Morpholin-4-yl-piperidin-1-ylmethyl)-benzofuran-6-yloxy]-thiazolo[4,5-b]pyridine formate] | 16 | 50
NC(=O)N[C@H]1C[C@H]2CC[C@@H](C1)N2Cc1cc2ccc(Oc3nc4ncccc4s3)cc2o1 [Example 172, meso-endo-{8-[6-(Thiazolo[4,5-b]pyridin-2-yloxy)-benzofuran-2-ylmethyl]-8-aza-bicyclo[3.2.1]oct-3-yl}-urea] | 9 | 230
O=C(NCc1coc2cc(Oc3nc4ncccc4s3)ccc12)C1CCC(O)CC1 (stereo not shown) [Example 392, 4-Hydroxy-cyclohexanecarboxylic acid [6-(thiazolo[4,5-b]pyridin-2-yloxy)-benzofuran-3-ylmethyl]-amide] | 29 | 290
COC(=O)c1ccc(CN2C[C@@H]3C[C@H]2CN3Cc2coc3cc(Oc4nc5ncccc5s4)ccc23)cc1 [Example 360, (1S,4S)-4-{5-[6-(Thiazolo[4,5-b]pyridin-2-yloxy)-benzofuran-3-ylmethyl]-2,5-diaza-bicyclo[2.2.1]hept-2-ylmethyl}-benzoic acid methyl ester] | 17 | 350
CC(C)(C)C1CCN(Cc2coc3cc(Oc4nc5ncccc5s4)ccc23)CC1 [Example 302, 2-[3-(4-tert-Butyl-piperidin-1-ylmethyl)-benzofuran-6-yloxy]-thiazolo[4,5-b]pyridine formate] | 20 | 78
O=C(O)C1CCN(CCc2coc3cc(Oc4nc5ccccc5s4)ccc23)CC1 [Example 80, 1-{2-[6-(Benzothiazol-2-yloxy)-benzofuran-3-yl]-ethyl}-piperidine-4-carboxylic acid] | 48 | 350

Further lines, results first:

IC50 [1] [nM] | IC50 [2] [nM] | Compound
4 | 32 | CS(=O)(=O)N1C[C@@H]2CC[C@H]1CN2Cc1coc2cc(Oc3nc4ncccc4s3)ccc12 [Example 245, (1S,4S)-2-Methanesulfonyl-5-[6-(thiazolo[4,5-b]pyridin-2-yloxy)-benzofuran-3-ylmethyl]-2,5-diaza-bicyclo[2.2.2]octane]
13 | 300 | O=C1Cc2ccccc2N1Cc1coc2cc(Oc3nc4ncccc4s3)ccc12 [Example 399, 1-[6-(Thiazolo[4,5-b]pyridin-2-yloxy)-benzofuran-3-ylmethyl]-1,3-dihydro-indol-2-one]
12 | 293 | CC(=O)N1C[C@H]2C[C@@H]1CN2Cc1cc2cc(Oc3nc4ncccc4s3)ccc2o1 [Example 102, (1R,4R)-1-{5-[5-(Thiazolo[4,5-b]pyridin-2-yloxy)-benzofuran-2-ylmethyl]-2,5-diaza-bicyclo[2.2.1]hept-2-yl}-ethanone]
10 | 150 | O=C(c1coc2cc(Oc3nc4ncccc4s3)ccc12)N1CCN(C2CCCCC2)CC1 [Example 379, (4-Cyclohexyl-piperazin-1-yl)-[6-(thiazolo[4,5-b]pyridin-2-yloxy)-benzofuran-3-yl]-methanone]
7 | 220 | O=C(C1CCC1)N1C[C@@H]2C[C@H]1CN2Cc1coc2cc(Oc3nc4ncccc4s3)ccc12 [Example 357, (1S,4S)-Cyclobutyl-{5-[6-(thiazolo[4,5-b]pyridin-2-yloxy)-benzofuran-3-ylmethyl]-2,5-diaza-bicyclo[2.2.1]hept-2-yl}-methanone]
2 | 341 | O=C(C1CCN(Cc2c[nH]c3cc(Oc4nc5ccccc5s4)ccc23)CC1)N1CCCCC1 [Example 24, {1-[6-(Benzothiazol-2-yloxy)-1H-indol-3-ylmethyl]-piperidin-4-yl}-piperidin-1-yl-methanone]
8 | 16 | CC(=O)N[C@@H]1CCN(Cc2coc3cc(Oc4nc5ncccc5s4)ccc23)C1 [Example 324, (R)—N-{1-[6-(Thiazolo[4,5-b]pyridin-2-yloxy)-benzofuran-3-ylmethyl]-pyrrolidin-3-yl}-acetamide]
12 | 68 | c1ccc2sc(Oc3ccc4c(CN5CCCC5)c[nH]c4c3)nc2c1 [Example 1, 2-(3-Pyrrolidin-1-ylmethyl-1H-indol-6-yloxy)-benzothiazole]
13 | 250 | c1ccc2sc(Oc3ccc4c(CN5C[C@@H]6C[C@H]5CO6)c[nH]c4c3)nc2c1 [Example 12, (1S,4S)-2-[3-(2-Oxa-5-aza-bicyclo[2.2.1]hept-5-ylmethyl)-1H-indol-6-yloxy]-benzothiazole]
9.7 | 171 | CC(C)(C)OC(=O)NC1CCN(Cc2c[nH]c3cc(Oc4nc5ccccc5s4)ccc23)CC1 [Example 145, {1-[6-(Benzothiazol-2-yloxy)-1H-indol-3-ylmethyl]-piperidin-4-yl}-carbamic acid tert-butyl ester]
